Experimental data taken from US11608332B2, “FGFR4 inhibitor and preparation method and use thereof” (Jiangsu Hansoh Pharmaceutical Group Co., Ltd., priority 2016, dated 2023).

Tests used:
[1] = target: FGFR4 kinase (Homo sapiens (Human), UniProt P22455); experiment: Enzymologic experiment of FGFR4 (TR-FRET); assay type: biochemical; details: TR-FRET kinase activity
Method: 1. Enzymologic Experiment of FGFR4
In this experiment, the inhibitory effect of the compounds on FGFR4 kinase activity was tested by a fluorescence resonance energy transfer (TR-FRET) method, and the half maximal inhibitory concentration (IC50) of the compounds on the FGFR4 kinase activity was determined.
2) 1˜5 μL of diluted solution in gradient of the compound were added.
(§1) 4) The mixture was incubated for 0.5-3 hours at room temperature.
(§2) 5) 10 μL of EDTA and a test solution comprising labeled antibody were added, and the plate was incubated for 1 hour at room temperature.
(§3) 6) The fluorescence signal values of each plate were determined by a microplate reader at 665 nm.
(§4) 7) The inhibition rates were calculated according to the fluorescence signal values.

[2] = target: FGFR1 kinase (Homo sapiens (Human), UniProt P11362); experiment: Enzymologic experiment of FGFR1 (TR-FRET); assay type: biochemical; details: TR-FRET kinase activity
Chain of FGFR1 kinase (P11362 22-822): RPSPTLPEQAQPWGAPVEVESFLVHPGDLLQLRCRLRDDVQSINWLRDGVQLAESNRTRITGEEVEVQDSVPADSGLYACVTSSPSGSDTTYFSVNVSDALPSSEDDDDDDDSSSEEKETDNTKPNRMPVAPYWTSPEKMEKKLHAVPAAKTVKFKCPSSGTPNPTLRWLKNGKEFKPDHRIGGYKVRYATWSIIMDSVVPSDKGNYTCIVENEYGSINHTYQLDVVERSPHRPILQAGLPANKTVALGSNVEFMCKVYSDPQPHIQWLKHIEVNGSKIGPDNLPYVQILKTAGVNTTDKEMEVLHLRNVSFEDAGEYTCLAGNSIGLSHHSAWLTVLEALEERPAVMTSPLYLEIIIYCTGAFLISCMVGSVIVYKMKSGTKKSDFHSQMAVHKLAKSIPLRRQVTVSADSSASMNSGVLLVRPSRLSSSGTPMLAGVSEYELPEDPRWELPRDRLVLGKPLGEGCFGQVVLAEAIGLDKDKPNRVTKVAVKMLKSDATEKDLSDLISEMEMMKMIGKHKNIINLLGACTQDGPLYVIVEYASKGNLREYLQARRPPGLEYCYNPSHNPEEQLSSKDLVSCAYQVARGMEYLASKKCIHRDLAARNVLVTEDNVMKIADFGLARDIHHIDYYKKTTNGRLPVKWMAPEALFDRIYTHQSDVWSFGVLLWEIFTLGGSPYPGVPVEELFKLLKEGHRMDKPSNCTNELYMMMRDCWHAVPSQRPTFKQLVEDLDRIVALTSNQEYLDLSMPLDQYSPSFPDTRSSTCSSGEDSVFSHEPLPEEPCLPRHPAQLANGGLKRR
Method: 2. Enzymologic Experiment of FGFR1
In this experiment, the inhibitory effect of the compounds on FGFR1 kinase activity was tested by a fluorescence resonance energy transfer (TR-FRET) method, and the half maximal inhibitory concentration (IC50) of the compounds on the FGFR1 kinase activity was determined.
1) 1˜5 μL of FGFR1 enzymatic solution was added to a 384-well plate, and the final concentration of the enzyme was 0.1˜5 nM.
2) 1˜5 μL of diluted solution in gradient of the compound was added.
3) 1˜5 μL of a substrate mixture containing substrate polypeptide with a final concentration of 5˜50 nM and ATP with a final concentration of 10˜200 μM was added.
as §1, §2, §3, §4
The IC50 of the compound was obtained by curve fitting according to the inhibition rates at different concentrations, and the enzymatic activity of the specific example compounds is shown in Table 1.

[3] = test system: Hep 3B cells; experiment: Inhibition of Hep 3B cell proliferation (CellTiter-Glo); assay type: cell-based; details: Homo sapiens, Hep3B, 72 hours
Method: 3. Experiment on the Inhibition of Hep 3B Cell Proliferation
In this experiment, the inhibitory effect of the compounds on Hep 3B cell proliferation was tested by a CellTiter-Glo method, and the half maximal inhibitory concentration (IC50) of the compounds on the activity of cell proliferation was determined.
1) A 96-well cell culture plate was seeded with 50˜100 μL of Hep 3B cell suspension at a density of 1-5×10^4 cells/ml. The culture plate was incubated in an incubator for 16-24 hours (37° C., 5% CO2).
(§5) 2) Different concentrations of the test compound in a gradient dilution were added to the cells in the culture plate. The culture plate was incubated in an incubator for 72 hours (37° C., 5% CO2).
3) 50-100 μL of CellTiter-Glo reagent were added to each well. Then, the culture plate was shaken or left to stand for 5˜30 minutes at room temperature.
(§6) 4) The chemiluminescence signal values of each plate were determined by a microplate reader.
(§7) 5) The inhibition rates were calculated according to the chemiluminescence signal values.
6) The IC50 of the compound was obtained by curve fitting according to the inhibition rates at different concentrations, and the cell activity of the specific example compounds is shown in Table 2.

[4] = test system: HuH-7 cells; experiment: Inhibition of HuH-7 cell proliferation (CellTiter-Glo); assay type: cell-based; details: Homo sapiens, 72 hours
Method: 4. Experiment on the Inhibition of HuH-7 Cell Proliferation
In this experiment, the inhibitory effect of the compounds on HuH-7 cell proliferation was tested by a CellTiter-Glo method, and the half maximal inhibitory concentration (IC50) of the compounds on the activity of cell proliferation was determined.
1) A 96-well cell culture plate was seeded with 50˜100 μL of HuH-7 cell suspension at a density of 1-5×10^4 cells/ml. The culture plate was incubated in an incubator for 16˜24 hours (37° C., 5% CO2).
as §5
(§8) 3) 50˜100 μL of CellTiter-Glo reagent were added to each well. Then, the culture plate was shaken or left to stand for 5˜30 minutes at room temperature.
as §6, §7
6) The IC50 of the compound was obtained by curve fitting according to the inhibition rates at different concentrations, and the cell activity of the specific Example compounds is shown in Table 2.

[5] = test system: SK-HEP-1 cells; experiment: Inhibition of SK-HEP-1 cell proliferation (CellTiter-Glo); assay type: cell-based; details: Homo sapiens, SK-HEP1, 72 hours
Method: 5. Experiment on the Inhibition of SK-HEP-1 Cell Proliferation
In this experiment, the inhibitory effect of the compounds on SK-HEP-1 cell proliferation was tested by a CellTiter-Glo method, and the half maximal inhibitory concentration (IC50) of the compounds on the activity of cell proliferation was determined.
1) A 96-well cell culture plate was seeded with 50˜100 μL of SK-HEP-1 cell suspension at a density of 1-5×10^4 cells/ml. The culture plate was incubated in an incubator for 16˜24 hours (37° C., 5% CO2).
as §5, §8, §6, §7
The IC50 of the compound was obtained by curve fitting according to the inhibition rates at different concentrations, and the cell activity of the specific Example compounds is shown in Table 2.

[6] = Pharmacokinetic (PK) analysis in rats; assay type: in vivo, Sprague Dawley (SD) rats; details: SD rats, single intragastric administration, 5 mg/kg, plasma; for AUC(0-t) / AUC(0-inf) / half-life / MRT / Cmax: Sprague-Dawley, rat, po; for AUC(0-t): read-out: Area Under Curve AUC0-t; for AUC(0-inf): read-out: Area Under Curve AUC0-∞; for half-life: read-out: Half-Time t1/2 (converted); for MRT: read-out: Mean Residence Time MRT; for Cmax: read-out: Plasma Concentration Cmax
Method: 6. Pharmacokinetic (PK) Analysis in Rats
Mode of administration: a single intragastric administration.
Formulation: 0.5% CMC and 1% Tween 80, ultrasonic dissolution.
Sampling points: 0.5, 1, 2, 4, 6, 8 and 24 hours after administration.
1. 1.0 ml of intravenous blood was collected and placed in a K2EDTA test tube.
The blood was centrifuged at room temperature at the speed of 1000˜3000×g for 5˜20 minutes to isolate the plasma, which was then stored at −80° C. 2. 160 μL of acetonitrile were added to 40 μL of plasma sample for precipitation, and then the mixture was centrifuged at the speed of 500˜2000×g for 5˜20 minutes. 3. 100 μL of treated solution were taken, and the concentration of the test compound was analyzed by LC/MS/MS. The LC/MS/MS analytical instrument was AB Sciex API 4000.
Liquid Chromatography Analysis:
Condition of Liquid chromatography: Shimadzu LC-20AD pump
Chromatographic column: phenomenex Gemiu 5 um C18 50×4.6 mm
Mobile phase: Solution A is 0.1% aqueous formic acid solution, and solution B is acetonitrile
Elution time: 0-3.5 minutes, the eluent was as follows:
Mass spectrometry analysis:
Mass spectrometer setup conditions: positive ion electrospray ionization (ESI) mode.

Chain of FGFR4 kinase (P22455 22-802): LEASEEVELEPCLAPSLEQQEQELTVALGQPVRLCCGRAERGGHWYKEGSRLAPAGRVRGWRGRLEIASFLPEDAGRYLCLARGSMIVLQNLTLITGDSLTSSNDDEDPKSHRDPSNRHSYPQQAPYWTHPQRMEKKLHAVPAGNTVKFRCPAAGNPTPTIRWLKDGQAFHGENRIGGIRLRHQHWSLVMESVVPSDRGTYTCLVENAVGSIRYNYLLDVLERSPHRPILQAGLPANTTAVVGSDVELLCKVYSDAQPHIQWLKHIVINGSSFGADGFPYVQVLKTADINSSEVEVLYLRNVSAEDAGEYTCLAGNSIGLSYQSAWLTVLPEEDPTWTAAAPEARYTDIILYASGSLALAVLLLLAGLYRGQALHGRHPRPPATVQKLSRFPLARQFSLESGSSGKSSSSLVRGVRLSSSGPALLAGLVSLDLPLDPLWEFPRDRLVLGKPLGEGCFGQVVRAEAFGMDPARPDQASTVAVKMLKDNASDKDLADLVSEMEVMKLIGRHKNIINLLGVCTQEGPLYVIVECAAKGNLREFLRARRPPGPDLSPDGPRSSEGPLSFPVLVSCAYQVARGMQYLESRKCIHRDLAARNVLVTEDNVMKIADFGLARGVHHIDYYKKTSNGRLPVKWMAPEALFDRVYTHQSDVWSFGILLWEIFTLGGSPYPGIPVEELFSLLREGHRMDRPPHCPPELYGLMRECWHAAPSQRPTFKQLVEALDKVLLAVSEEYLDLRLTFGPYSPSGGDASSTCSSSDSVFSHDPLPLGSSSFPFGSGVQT

Row | IC50 [1] | Structure (SMILES) | IC50 [2] | IC50 [3] | IC50 [4] | IC50 [5] | Peak Time tmax [6] | AUC(0-t) [6] | AUC(0-inf) [6] | half-life [6] | MRT [6] | Cmax [6]
1 | 4.54 nM | CN(Cc1cc2c(nc1C=O)N(C(=O)Nc1cc(N(C)C)c(C#N)cn1)CCC2)C(=O)C1CCCO1 (stereo not shown) [Example 4, N-(5-Cyano-4-(dimethylamino)pyridin-2-yl)-7-formyl-6-((N-methyltetrahydrofuran-2-carboxamido)methyl)-3,4-dihydro-1,8-naphthyridin-1(2H)-carboxamide] | > 10000 nM |  |  |  |  |  |  |  |  | 
2 | 1.47 nM | CCN1CCC[C@@H]1C(=O)N(C)Cc1cc2c(nc1C=O)N(C(=O)Nc1cc(NCCOC)c(C#N)cn1)CCC2 [Example 97, (R)—N-(5-Cyano-4-((2-methoxyethyl)amino)pyridin-2-yl)-6-((1-ethyl-N-methylpyrrolidin-2-carboxamido)methyl)-7-formyl-3,4-dihydro-1,8-naphthyridin-1(2H)-carboxamide] | > 10000 nM | 9.8 nM | 43.7 nM | > 10000 nM |  |  |  |  |  | 
3 | 1.88 nM | COCCNc1cc(NC(=O)N2CCCc3cc(CN(C)C(=O)[C@H]4CCCN4C(C)=O)c(C=O)nc32)ncc1C#N [Example 10, (R)-6-((1-Acetyl-N-methylpyrrolidin-2-carboxamido)methyl)-N-(5-cyano-4-((2-methoxyethyl)amino)pyridin-2-yl)-7-formyl-3,4-dihydro-1,8-naphthyridin-1(2H)-carboxamide] | > 10000 nM |  |  |  | 2 h | 5260 ng·h/mL | 5340 ng·h/mL | 1 h | 2.8 h | 1960 ng/mL
4 |  | CN(Cc1cc2c(nc1C=O)N(C(=O)Nc1cc(N[C@H]3CCOC3)c(C#N)cn1)CCC2)C(=O)[C@H]1CCCO1 [Example 94, N-(5-Cyano-4-(((S)-tetrahydrofuran-3-yl)amino)pyridin-2-yl)-7-formyl-6-(((R)—N-methyltetrahydrofuran-2-carboxamido)methyl)-3,4-dihydro-1,8-naphthyridin-1 (2H)-carboxamide] | > 10000 nM | 3.9 nM | 13.8 nM | > 10000 nM | 2 h | 13000 ng·h/mL | 12400 ng·h/mL | 0.8 h | 2.8 h | 3750 ng/mL
5 |  | COC[C@@H](C)Nc1cc(NC(=O)N2CCCc3cc(CN4CC[C@H](OC)C4=O)c(C=O)nc32)ncc1C#N [Example 89, N-(5-Cyano-4-(((R)-1-methoxypropan-2-yl)amino)pyridin-2-yl)-7-formyl-6-(((S)-3-methoxy-2-carbonylpyrrolidin-1-yl)methyl)-3,4-dihydro-1,8-naphthyridin-1(2H)-carboxamide] | > 10000 nM | 1.9 nM | 2.3 nM | > 10000 nM | 2 h | 3100 ng·h/mL | 3130 ng·h/mL | 1 h | 2.5 h | 1990 ng/mL
6 |  | COCCNc1cc(NC(=O)N2CCCc3cc(CN(C)C(=O)C4COC4)c(C=O)nc32)ncc1C#N [Example 3, N-(5-Cyano-4-((2-methoxyethyl)amino)pyridin-2-yl)-7-formyl-6-((N-methyloxetane-3-carboxamido)methyl)-3,4-dihydro-1,8-naphthyridin-1(2H)-carboxamide] | > 10000 nM | 5.4 nM | 38.8 nM | > 10000 nM | 2 h | 6350 ng·h/mL | 6660 ng·h/mL | 1.6 h | 3.3 h | 2230 ng/mL
7 |  | CO[C@H]1CCN(Cc2cc3c(nc2C=O)N(C(=O)Nc2cc(N[C@@H]4CCOC4)c(C#N)cn2)CCC3)C1=O [Example 85, N-(5-Cyano-4-(((R)-tetrahydrofuran-3-yl)amino)pyridin-2-yl)-7-formyl-6-(((S)-3-methoxy-2-carbonylpyrrolidin-1-yl)methyl)-3,4-dihydro-1,8-naphthyridin-1(2H)-carboxamide] | > 10000 nM | 2.6 nM | 4.6 nM | > 10000 nM | 2 h | 7280 ng·h/mL | 7370 ng·h/mL | 0.9 h | 3.3 h | 2120 ng/mL
8 |  | COCCNc1cc(NC(=O)N2CCCc3cc(CN4CC[C@H](OC)C4=O)c(C=O)nc32)ncc1C#N [Example 46, (S)—N-(5-Cyano-4-((2-methoxyethyl)amino)pyridin-2-yl)-7-formyl-6-((3-methoxy-2-carbonylpyrrolidin-1-yl)methyl)-3,4-dihydro-1,8-naphthyridin-1(2H)-carboxamide] | > 10000 nM | 2.3 nM | 9 nM | > 10000 nM | 2 h | 10700 ng·h/mL | 11300 ng·h/mL | 1 h |  | 3290 ng/mL
9 |  | COCCNc1cc(NC(=O)N2CCCc3cc(CN(C)C(=O)C4CCOC4)c(C=O)nc32)ncc1C#N (stereo not shown) [Example 5, N-(5-Cyano-4-((2-methoxyethyl)amino)pyridin-2-yl)-7-formyl-6-((N-methyltetrahydrofuran-3-carboxamido)methyl)-3,4-dihydro-1,8-naphthyridin-1(2H)-carboxamide] | > 10000 nM | 9.1 nM | 31.7 nM | > 10000 nM | 2 h | 13000 ng·h/mL | 13400 ng·h/mL | 1.2 h | 3.2 h | 3570 ng/mL
10 | 4.2 nM | CO[C@@H]1CCN(c2cc(NC(=O)N3CCCc4cc(CN(C)C(=O)[C@H]5CCCO5)c(C=O)nc43)ncc2C#N)C1 [Example 18, N-(5-Cyano-4-((R)-3-methoxypyrrolidin-1-yl)pyridin-2-yl)-7-formyl-6-(((R)—N-methyltetrahydrofuran-2-carboxamido)methyl)-3,4-dihydro-1,8-naphthyridin-1(2H)-carboxamide] | > 10000 nM |  |  |  |  |  |  |  |  | 
